Here are results for 13 compounds from publication PMC8348901, “Novel N-Substituted 3-Aryl-4-(diethoxyphosphoryl)azetidin-2-ones as Antibiotic Enhancers and Antiviral Agents in Search for a Successful Treatment of Complex Infections” (International Journal of Molecular Sciences, 2021).

Read-outs that look alike come from different tables or passages of the source.

For data set [1], the system named is cytomegalovirus AD-169 strain. The experiment in a line: Antiviral CPE reduction assay, cytomegalovirus AD-169 strain in HEL cells. In kind it is cell-based, human cytomegalovirus (HCMV). The settings on record: Human betaherpesvirus 5, AD169.
Another data set deals with S. aureus ATCC 25923. The experiment in a line: Oxacillin MIC reduction (adjuvant) microdilution assay. The class given is cell-based, Staphylococcus aureus. The settings on record: for Activity Gain [A]: MIC(OXA)/MIC(OXA+Cpd), compound 0.5 mM, adjuvant activity if A ≥ 4; for OXA+ Cpd MIC: oxacillin MIC in presence of 0.5 mM compound. Here is the method:
(§1) Since the lack of direct antibacterial activity of the obtained azetidinones was observed, all isomers trans and cis were investigated on their “adjuvant” properties, i.e., an ability to enhance the effectiveness of antibiotics against S. aureus strains. Thus, the compounds were tested in combination with the known β-lactam antibiotic, oxacillin, in the microdilution assays. The ability of the tested azetidinones to reduce minimum inhibitory concentration (MIC) of oxacillin against both, the referenced and the resistant S. aureus strains, was assessed.
(§2) The in-vitro antibacterial property and the capacity of tested compounds to increase the efficacy of antibiotics were evaluated in two Staphylococcus aureus strains, i.e., the reference clonal complex 5 (CC5) methicillin-susceptible (MSSA) strain ATCC 25923, and the methicillin-resistant (MRSA) extensively drug-resistant (XDR) clinical isolate HEMSA-5 [46].
(§3) In order to assess the increase of antibiotic efficacy, the assays were conducted by determining if/to what extent the investigated compounds reduce MICs of oxacillin by means of a serial dilution broth microplate method, in accordance with the CLSI requirements. The concentrations of compounds used in the MICs reduction assay were no greater than 1/4 of their respective MICs to ensure that cell viability was not affected by the intrinsic antibacterial activity of the molecules. Serial two-fold dilutions of oxacillin (Sigma-Aldrich; St. Louis, MI, USA, cat. no. 28221), were prepared in […] of the Mueller–Hinton broth (Merck; Darmstadt, Germany, cat. no. 1102930500). Suitable concentrations of the compounds (total volume […]) were then added. Bacterial suspensions were diluted to OD ¼ 0.5. The resulting suspensions were then diluted 1:100 and added in the volume of […] into the oxacillin serial dilutions with the compounds. The results were read after 20-h incubation at 37 °C.
(§4) The ability of compounds to improve antibiotic efficacy was expressed as the activity gain [A] parameter calculated according to the formula given in Figure 10.
(§5) Figure 10 Activity gain. MICAnt corresponds to the MIC of oxacillin in the absence of a compound tested and MICAnt + Comp refers to the MIC of oxacillin paired with a compound tested.

In a further data set the test system is MRSA HEMSA 5. The description is as above. In kind it is cell-based, Staphylococcus aureus. As to conditions: for Activity Gain [A]: MIC(OXA)/MIC(OXA+Cpd), compound 0.5 mM, adjuvant activity if A ≥ 4; for OXA+ Cpd MIC: oxacillin MIC in presence of 0.5 mM compound. The procedure:
as §1, §2, §3, §4, §5

Data set [2] relates to Capan-1 (pancreatic adenocarcinoma). The experiment in a line: Cytostatic activity (cell proliferation). The class given is cell-based. The procedure:
(§6) The 50% cytostatic inhibitory concentration (IC50) causing a 50% decrease in cell proliferation was determined for all obtained compounds toward 9 cancerous cell lines, i.e.,: Capan-1 (pancreatic adenocarcinoma), Hap1 (chronic myeloid leukemia), HCT-116 (colorectal carcinoma), NCI-H460 (lung carcinoma), DND-41 (acute lymphoblastic leukemia), HL-60 (acute myeloid leukemia), K-562 (chronic myeloid leukemia), MM.1S (multiple myeloma), Z-138 non-Hodgkin lymphoma), as well as normal retina (non-cancerous) cells (hTERT RPE-1).
All assays were performed in 96-well microtiter plates. To each well was added (5–7.5) × 10^4 tumor cells and a given amount of the tested compound. The cells were allowed to proliferate at 37 °C in a humidified, CO2-controlled atmosphere. At the end of the incubation period, the cells were counted in a Coulter counter.

Data set [3] concerns NCI-H460 (lung carcinoma). The experiment in a line: Cytostatic activity (cell proliferation). In kind it is cell-based. The procedure: as §6, with “RPE-1). Docetaxel, etoposide and stauroporine were used as the reference compounds.” for “RPE-1).”
(§7) All assays were performed in 96-well microtiter plates. To each well was added (5–7.5) × 10^4 tumor cells and a given amount of the tested compound. The cells were allowed to proliferate at 37 °C in a humidified, CO2-controlled atmosphere. At the end of the incubation period, the cells were counted in a Coulter counter. The IC50 (50% inhibitory concentration) was defined as the concentration of the compound that inhibited cell proliferation by 50%.

For data set [4], the system named is HCT-116 (colorectal carcinoma). The experiment in a line: Cytostatic activity (cell proliferation). In kind it is cell-based. The procedure: as §6, with “RPE-1). Docetaxel, etoposide and stauroporine were used as the reference compounds.” for “RPE-1).”
as §7

The test system of data set [5] is DND-41 (acute lymphoblastic leukemia). The experiment in a line: Cytostatic activity (cell proliferation). The class given is cell-based. The procedure: as §6, with “RPE-1). Docetaxel, etoposide and stauroporine were used as the reference compounds.” for “RPE-1).”
as §7

Data set [6] deals with hTERT RPE-1 normal retina (non-cancerous) cells. The experiment in a line: Cytostatic activity (cell proliferation). In kind it is cell-based. Here is the method: as §6, with “RPE-1). Docetaxel, etoposide and stauroporine were used as the reference compounds.” for “RPE-1).”
as §7

The subject of data set [7] is Hap1 (chronic myeloid leukemia). The experiment in a line: Cytostatic activity (cell proliferation). In kind it is cell-based. The procedure:
as §6, with “RPE-1). Docetaxel, etoposide and stauroporine were used as the reference compounds.” for “RPE-1).”
as §7

The nature of a further data set: in vitro. As to conditions: dog.
For data set [8], the system named is influenza A virus H1N1 subtype. The experiment in a line: Antiviral assay, influenza A virus H1N1 subtype in MDCK cells. In kind it is cell-based, influenza A virus H1N1 (A/PR/8).

In data set [1], `Nc1ccn(C[C@@H](CO)OCP(=O)(O)O)c(=O)n1` [cidofovir] came in with a concentration for a half-maximal effect (EC50) of 0.67 µM.

`CCOP(=O)(OCC)[C@@H]1[C@H](c2ccccc2)C(=O)N1C` (relative stereo) [cis-10a, cis-N-methyl-3-phenyl-4-(diethoxyphosphoryl)azetidin-2-one]: the “Activity Gain [A]” value with S. aureus ATCC 25923 is listed as 0.5; with MRSA HEMSA 5, 1–2. For the same compound, the “OXA+ Cpd MIC” value is 1 µg/mL in the data set with S. aureus ATCC 25923 and 256 to 512 µg/mL with MRSA HEMSA 5. Besides, the half-maximal inhibitory concentration (IC50) in data set [2] is 37.8 µM; in data set [3] it was more than 100 µM; in [4], more than 100 µM; in data set [5] it was more than 100 µM; in data set [6] it was more than 100 µM; in [7], 46.3 µM.

As to `CCOP(=O)(OCC)[C@H]1[C@H](c2ccc(F)c(C)c2)C(=O)N1C` (relative stereo) [trans-10f, trans-N-methyl-3-(4-fluoro-3-methylphenyl)-4-(diethoxyphosphoryl)azetidin-2-one], the “Activity Gain [A]” value turned out to be 0.5 with S. aureus ATCC 25923 and 1 with MRSA HEMSA 5. Further, the concentration for half-maximal inhibition (IC50) was 47.7 µM in data set [2] (Homo sapiens, CAPAN-1); 59.7 µM in data set [3] (Homo sapiens, NCI-H460); more than 100 µM in [4] (Homo sapiens, HCT-116); more than 100 µM in data set [5] (DND41); 90.2 µM in data set [6] (hTERT-RPE1); 41.8 µM in [7] (Homo sapiens, HAP1).

In data set [1], `Nc1nc(O)c2ncn(COC(CO)CO)c2n1` [ganciclovir] showed an EC50 of 3.15 µM.

Take `CCOP(=O)(OCC)[C@H]1[C@H](c2ccc(F)cc2F)C(=O)N1Cc1ccccc1` (relative stereo) [trans-11e, trans-N-benzyl-3-(2,4-difluorophenyl)-4-(diethoxyphosphoryl)azetidin-2-one]: the results for the “Activity Gain [A]” value in the data set on S. aureus ATCC 25923 and in the data set with MRSA HEMSA 5 were 0.5 and 1, respectively. Further, the 50% inhibitory concentration (IC50) in data set [2] (Homo sapiens, CAPAN-1) was 36.5 µM; in data set [3] (Homo sapiens, NCI-H460) it was 24.4 µM; in data set [4] (Homo sapiens, HCT-116) it was 36.6 µM; in data set [5] (DND41), more than 100 µM; in data set [6] (hTERT-RPE1), 25.6 µM; in data set [7] (Homo sapiens, HAP1) it was 42.9 µM.

Consider `CCOP(=O)(OCC)[C@@H]1[C@H](c2ccc(F)cc2)C(=O)N1C` (relative stereo) [cis-10d, cis-N-methyl-3-(4-fluorophenyl)-4-(diethoxyphosphoryl)azetidin-2-one], for which the “Activity Gain [A]” value was 0.5 in the data set on S. aureus ATCC 25923 and 1 in the data set with MRSA HEMSA 5. For the same compound, the half-inhibitory concentration (IC50) in data set [2] (Homo sapiens, CAPAN-1) is more than 100 µM; in data set [3] (Homo sapiens, NCI-H460), 71 µM; in [4] (Homo sapiens, HCT-116), 86.5 µM; in [5] (DND41), more than 100 µM; in [6] (hTERT-RPE1) it was more than 100 µM; in [7] (Homo sapiens, HAP1), 70.3 µM.

On to `CCOP(=O)(OCC)[C@H]1[C@H](c2ccccc2)C(=O)N1C` (relative stereo) [trans-10a, trans-N-methyl-3-phenyl-4-(diethoxyphosphoryl)azetidin-2-one], for which the “Activity Gain [A]” value in the data set with S. aureus ATCC 25923 and with MRSA HEMSA 5 was 1 in each case. For the same compound, the “OXA+ Cpd MIC” value with S. aureus ATCC 25923 was 0.5 µg/mL; in the data set with MRSA HEMSA 5, 512 µg/mL. Also, the half-maximal inhibitory concentration (IC50) in data set [2] is 46.2 µM; in data set [3], 54.6 µM; in data set [4], more than 100 µM; in [5], more than 100 µM; in data set [6] it was more than 100 µM; in data set [7] it was more than 100 µM.

As to `CCOP(=O)(OCC)[C@H]1[C@H](c2ccccc2F)C(=O)N1C` (relative stereo) [trans-10b, trans-N-methyl-3-(2-fluorophenyl)-4-(diethoxyphosphoryl)azetidin-2-one], the “Activity Gain [A]” value with S. aureus ATCC 25923 is given as 0.5; in the data set on MRSA HEMSA 5, 1. Moreover, the 50% inhibitory concentration (IC50) is 53.1 µM in data set [2] (Homo sapiens, CAPAN-1); 34.8 µM in [3] (Homo sapiens, NCI-H460); 44.1 µM in [4] (Homo sapiens, HCT-116); more than 100 µM in [5] (DND41); more than 100 µM in [6] (hTERT-RPE1); 38.7 µM in data set [7] (Homo sapiens, HAP1).

As for `CCOP(=O)(OCC)[C@@H]1[C@H](c2ccc(F)cc2F)C(=O)N1C` (relative stereo) [cis-10e, cis-N-methyl-3-(2,4-difluorophenyl)-4-(diethoxyphosphoryl)azetidin-2-one], the “Activity Gain [A]” value in the data set with S. aureus ATCC 25923 and with MRSA HEMSA 5 was 1 throughout. Also, the half-inhibitory concentration (IC50) was 56.8 µM in [2] (Homo sapiens, CAPAN-1); 92.6 µM in [3] (Homo sapiens, NCI-H460); more than 100 µM in data set [4] (Homo sapiens, HCT-116); more than 100 µM in [5] (DND41); more than 100 µM in data set [6] (hTERT-RPE1); more than 100 µM in data set [7] (Homo sapiens, HAP1).

For the compound `CCOP(=O)(OCC)[C@H]1[C@H](c2cccc(F)c2)C(=O)N1Cc1ccccc1` (relative stereo) [trans-11c, trans-N-benzyl-3-(3-fluorophenyl)-4-(diethoxyphosphoryl)azetidin-2-one], the “Activity Gain [A]” value in the data set on S. aureus ATCC 25923 is reported as less than 0.5; with MRSA HEMSA 5, 1. The IC50 was 40.1 µM in data set [2] (Homo sapiens, CAPAN-1); 44.3 µM in [3] (Homo sapiens, NCI-H460); 45.5 µM in [4] (Homo sapiens, HCT-116); more than 100 µM in data set [5] (DND41); 45.9 µM in data set [6] (hTERT-RPE1); 56.1 µM in data set [7] (Homo sapiens, HAP1).

As to `NC(=O)c1ncn([C@@H]2O[C@H](CO)[C@@H](O)[C@H]2O)n1` [ribavirin, reference compound], in “in vitro”, the CC50 is not below 100 µM. The half-maximal effective concentration (EC50) in [8] (H1N1, MDCK cells, visual CPE score, read-out: EC50 by visual CPE score, influenza A virus H1N1) came out at 8.9 µM; in data set [8] (H1N1, MDCK, read-out: EC50 by TMS score, influenza A virus H1N1), 6.6 µM.

Regarding `CCOP(=O)(OCC)[C@@H]1[C@H](c2ccc(F)c(C)c2)C(=O)N1C` (relative stereo) [cis-10f, cis-N-methyl-3-(4-fluoro-3-methylphenyl)-4-(diethoxyphosphoryl)azetidin-2-one], the “Activity Gain [A]” value in the data set on S. aureus ATCC 25923 was 0.5; in the data set on MRSA HEMSA 5, 1–2. Also, the IC50 in data set [2] (Homo sapiens, CAPAN-1) is 61.4 µM; in data set [3] (Homo sapiens, NCI-H460), 87 µM; in data set [4] (Homo sapiens, HCT-116), more than 100 µM; in [5] (DND41), more than 100 µM; in [6] (hTERT-RPE1) it was more than 100 µM; in data set [7] (Homo sapiens, HAP1) it was 97.9 µM.

As to `CCOP(=O)(OCC)[C@@H]1[C@H](c2ccc(F)cc2F)C(=O)N1Cc1ccccc1` (relative stereo) [cis-11e, cis-N-benzyl-3-(2,4-difluorophenyl)-4-(diethoxyphosphoryl)azetidin-2-one], the “Activity Gain [A]” value is on record as 0.5 with S. aureus ATCC 25923 and 1 in the data set with MRSA HEMSA 5. Also, the concentration for half-maximal inhibition (IC50) in data set [2] (Homo sapiens, CAPAN-1) was 48.9 µM; in data set [3] (Homo sapiens, NCI-H460), 43 µM; in data set [4] (Homo sapiens, HCT-116), more than 100 µM; in data set [5] (DND41) it was more than 100 µM; in data set [6] (hTERT-RPE1), more than 100 µM; in [7] (Homo sapiens, HAP1), more than 100 µM.
